The record followed here is the SangsterLogP compilation.

For this data set the following is noted: pH 7.4.

Structures are written as SMILES.

Take `COc1ccc(N(C(=O)c2occc2CO)C(C(=O)NC[C@@H](C)O)c2ccccc2F)c(OC)c1` (stereo partly drawn): the logD was found to be 1.37.
Regarding `CCCSc1ncccc1C(=O)NC1[C@@H]2CC3C[C@H]1CC(O)(C3)C2` (stereo partly drawn), the logD is 2.27.
Turning to `CS(=O)(=O)Cc1cc(N2CCOCC2)nc(-c2ccc(NS(C)(=O)=O)cc2)n1`, the logD is 0.85.
In the case of `Cc1ncc(-c2nc(Nc3ccc(N4CCOCC4)cc3)ncc2F)n1C(C)C` it was 3.01.
Compound `Cc1nc2nc(-c3cccnc3)[nH]n2c(=O)c1Cc1ccccc1` gave a logD of 1.52.
In turn, `CC(C)c1ccc2[nH]c3c(c2c1)CN(C(=O)[C@@H]1CCCC[C@H]1C(=O)NC1(C#N)CC1)CC3` registered a logD of 4.1.
In the case of `CS(=O)(=O)Cc1cc(N2CCOCC2)nc(-c2cccc3[nH]ccc23)n1` it was 1.7; in that of `C[C@@H]1CN(C(=O)OC(C)(C)C)CCN1c1ncc(OCc2ccc(S(C)(=O)=O)cc2C#N)cn1`, 3.3.
In the case of `O=c1cc(O)c2c(=O)n(Cc3ccccc3)c3ccccc3c2o1` it was 1.97.
In the case of `C[C@@H]1CN(C(=O)OC(C)(C)C)CCN1c1ncc(OCc2ccc(S(C)(=O)=O)cc2F)cn1` it was 3.7; in that of `CS(=O)(=O)c1ccc2nc(N3CCN(C(=O)[C@@H]4CCCC[C@H]4C(=O)NC4(C#N)CC4)CC3)sc2c1`, 1.49.
In turn, `CS(=O)(=O)c1cccc2c3c([nH]c12)CCN(C(=O)[C@@H]1CCCC[C@H]1C(=O)NC1(C#N)CC1)C3` had a log distribution coefficient (logD) of 1.7.
In the case of `Nc1ccccc1NC(=O)c1ccc(-c2ncc(CN3CCC3)cc2F)cc1` it was 1.69; in that of `COc1ccc(N2CCN(C(=O)[C@@H]3CCCC[C@H]3C(=O)NC3(C#N)CC3)CC2)cc1OC`, 1.4; in that of `N#CC1(NC(=O)[C@@H]2CCCC[C@H]2C(=O)N2CCc3[nH]c4ccc(F)cc4c3C2)CC1`, 3.
`N#Cc1cnc(N2CCN(C(=O)[C@@H]3CCCC[C@H]3C(=O)NC3(C#N)CC3)CC2)s1` gave a logD of 1.2.
For `CS(=O)(=O)c1ccc2c3c([nH]c2c1)CCN(C(=O)[C@@H]1CCCC[C@H]1C(=O)NC1(C#N)CC1)C3` the value was 1.5.
Compound `Cc1cccc2c3c([nH]c12)CCN(C(=O)[C@@H]1CCCC[C@H]1C(=O)NC1(C#N)CC1)C3` yielded a log distribution coefficient (logD) of 2.99.
As for `CS(=O)(=O)c1cccc(Nc2nccc(Nc3c(Cl)ccc4c3OCO4)n2)c1`, the logD was 3.13.
In the case of `CS(=O)(=O)C1(c2cc(N3CCOCC3)nc(-c3cccc4[nH]ccc34)n2)CC1`, the logD stood at 2.2.
`O=c1cc(-c2ccccc2)nc2cc[nH]n12` returned a log distribution coefficient (logD) of 1.3.
Compound `CC(C)(C)OC(=O)N1CCC(c2ncc(OCc3ccc(S(C)(=O)=O)cc3)cn2)CC1` gave a logD of 2.8.
For `Cc1cc(COc2cnc(N3CCN(C(=O)OC(C)(C)C)CC3)nc2)ccn1` the value was 3.7; for `CCNC(=O)c1cc2c(-n3ccc(C(F)(F)F)n3)c(-c3cncc(C(=O)NC)c3)cnc2[nH]1`, 2.21.
In the case of `Cc1ncc(-c2nc(Nc3ccc(N4CCN(C(=O)CO)CC4)cc3)ncc2F)n1C(C)C` it was 2.19; in that of `CC(=O)NC1CN(c2ccc(Nc3ncc(F)c(-c4cnc(C)n4C(C)C)n3)cc2)C1`, 2.76; in that of `CC(C)(C)OC(=O)N1CCN(c2ncc(OCc3ccncc3)cn2)CC1`, 3.4.
For `N#CC1(NC(=O)[C@@H]2CCCC[C@H]2C(=O)N2CCc3[nH]c4c(F)cccc4c3C2)CC1` the value was 3.03; for `COC1/C=C\OC2(C)Oc3c(C)c(O)c4c(c3C2=O)C(=O)C=C(NC(=O)/C(C)=C\C=C/C(C)C(O)C(C)C(O)C(C)C(OC(C)=O)C1C)C4=O` (stereo not drawn), 0.7; for `COc1ccc(N(C(=O)c2ccoc2Cl)C(C(=O)NC[C@@H](C)O)c2ccccc2F)c(OC)c1` (stereo partly drawn), 2.36.
`N#CC1(NC(=O)[C@@H]2CCCC[C@H]2C(=O)N2CCN(c3nc4c(s3)COCC4)CC2)CC1` gave a log distribution coefficient (logD) of 1.42.
For `CC(C)(C)OC(=O)N1CCN(c2ccc(OCc3ccc(S(C)(=O)=O)cc3)nn2)CC1` the value was 2.8; for `C[C@@H]1CN(C(=O)OC(C)(C)C)CCN1c1ncc(OCC2CCN(S(C)(=O)=O)CC2)cn1`, 3.5.
In the case of `CC(C)(C)OC(=O)N1CCN(c2ncc(OCc3ccncc3F)cn2)CC1` it was 3.6; in that of `Cc1ccc(-c2cccc(-c3nn[nH]n3)c2)cc1`, 1.3.
Regarding `CC(C)(C)OC(=O)N1CCN(c2cnc(OCc3ccc(S(C)(=O)=O)cc3)cn2)CC1`, the log distribution coefficient (logD) was found to be 3.4.
In the case of `COc1cc(OC)c(S(=O)(=O)N2c3ccccc3CCC2C)cc1NC(=O)CSc1ccncc1` (stereo not drawn) it was 2.82; in that of `COc1cc(OC)c(S(=O)(=O)NCc2ccccc2N2CCC(CO)CC2)cc1NC(C)=O`, 1.03.
On to `Nc1ccccc1NC(=O)c1ccc(N2CCOCC2)cc1`, for which the logD worked out at 1.2.
In the case of `CCNC(=O)c1cc2c(-n3ccc(C(F)(F)F)n3)c(-c3cncc(C#N)c3)cnc2[nH]1` it was 2.62; in that of `N#CC1(NC(=O)[C@@H]2CCCC[C@H]2C(=O)N2CCc3[nH]c4cc(F)ccc4c3C2)CC1`, 2.99.
For `Cc1nc2nc(NC(=O)c3ccc(F)cc3)[nH]n2c(=O)c1Cc1ccccc1` the value was 2.2; for `COc1cc2ncnc(Nc3cccc(Cl)c3F)c2cc1OC1CCN(CC(N)=O)CC1`, 3.1.
As to `COc1ccc2[nH]c3c(c2c1)CN(C(=O)[C@@H]1CCCC[C@H]1C(=O)NC1(C#N)CC1)CC3`, the logD amounted to 2.4.
Turning to `CC(C)(C)OC(=O)N1C[C@@H]2CC[C@H]1CN2c1ncc(OCc2ccc(S(C)(=O)=O)cc2)cn1`, the logD worked out at 3.4.
For `COc1cc(OC)c(S(=O)(=O)N2c3ccccc3Oc3ccccc32)cc1NC(=O)Cc1ccnc(F)c1` the value was 3.37; for `CC(=O)N1CCN(CCOc2ccc(C3(O)CCN(c4ccc5nnc(C(F)(F)F)n5n4)CC3)cc2)CC1`, 2.2.
As for `O=c1cc(O)c2c(=O)n(-c3ccccc3)c3ccccc3c2o1`, the logD was 0.96.
`COc1cnccc1COc1cnc(N2CCN(C(=O)OC(C)(C)C)CC2)nc1` came in with a logD of 3.8.
For `Cc1sc(N2CCN(C(=O)[C@@H]3CCCC[C@H]3C(=O)NC3(C#N)CC3)CC2)nc1C(F)(F)F` the value was 2.87.
`O=C(Nc1cccc2cccnc12)C1CCC(N2C(=O)[C@@H]3[C@@H]4CC[C@@H](C4)[C@@H]3C2=O)CC1` (stereo partly drawn) returned a pH-dependent lipophilicity (logD) of 3.94.
In the case of `CC(C)(C)OC(=O)N1CCN(c2ccc(OCc3ccc(S(C)(=O)=O)cc3)cn2)CC1` it was 3.2; in that of `N#CC1(NC(=O)[C@@H]2CCCC[C@H]2C(=O)N2CCc3[nH]c4ccc(Cl)cc4c3C2)CC1`, 3.65; in that of `N#CC1(NC(=O)[C@@H]2CCCC[C@H]2C(=O)N2CCc3[nH]c4c(C(F)(F)F)cccc4c3C2)CC1`, 3.75.
Compound `N#CC1(NC(=O)[C@@H]2CCCC[C@H]2C(=O)N2CCN(c3nccs3)CC2)CC1` had a logD of 1.3.
In turn, `COCc1ccoc1C(=O)N(c1ccc(OC)cc1OC)C(C(=O)NC[C@@H](C)O)c1ccccc1F` (stereo partly drawn) had a log distribution coefficient (logD) of 1.98.
With `CCCSc1c(C(=O)NC2CCCCC2)cnn1C`, the logD worked out at 2.99.
For `COc1ccc(N2CCN(C(=O)[C@@H]3CCCC[C@H]3C(=O)NC3(C#N)CC3)[C@H](C)C2)nc1OC` the value was 2.3; for `Cc1cnccc1COc1cnc(N2CCN(C(=O)OC(C)(C)C)CC2)nc1`, 3.8.
In the case of `N#CC1(NC(=O)[C@@H]2CCCC[C@H]2C(=O)N2CCc3[nH]c4c(OC(F)(F)F)cccc4c3C2)CC1` it was 4.01.
For `N#Cc1ccc(CN2CCN(c3ccc4nnc(C(F)(F)F)n4n3)CC2)cc1` the value was 2.9; for `CCS(=O)(=O)c1ccc(-c2cc(C(F)(F)F)ccc2OCC(N)=O)c(C)c1`, 2.77.
Regarding `C[C@@H]1CN(c2ncc(F)cn2)CCN1c1ncc(OCc2ccncc2C#N)cn1`, the logD came to 3.4.
For `N#CC1(NC(=O)[C@@H]2CCCC[C@H]2C(=O)N2CCc3[nH]c4ccccc4c3C2)CC1` the value was 2.66.
For `Fc1ccc(CN2CCN(C3=Nn4c(nnc4C(F)(F)F)CC3)CC2)cc1` the value was 2.8; for `CC(C)(C)OC(=O)N1CCN(c2ncc(OCc3ccc(S(C)(=O)=O)cc3)nn2)CC1`, 2.93.
In the case of `COc1ccc(N(C(=O)c2ccccc2)C(C(=O)NC[C@@H](C)O)c2ccccc2F)c(OC)c1` (stereo partly drawn) it was 2.55; in that of `Cc1ncc(-c2ccnc(Nc3ccc(N4CCN(S(=O)(=O)CCN(C)C)CC4)cc3)n2)n1C(C)C`, 2.52; in that of `CCCCN1Cc2c(nc3cc(-c4ccco4)[nH]n3c2=O)C1=O`, 0.8.
Consider `Cc1nn(C)c2ccc(N3CCN(C(=O)[C@@H]4CCCC[C@H]4C(=O)NC4(C#N)CC4)[C@H](C)C3)cc12`, for which the logD is 2.8.
In the case of `O=S(=O)(Cc1cc(N2CCOCC2)nc(-c2ccccn2)n1)c1ccccc1`, the logD came to 1.34.
For `C[C@@H]1COCCN1c1cc(C2(S(C)(=O)=O)CC2)nc(-c2cccc3[nH]ccc23)n1` the value was 2.7.
For `N#CC1(NC(=O)[C@@H]2CCCC[C@H]2C(=O)N2CCN(c3nc(C(F)(F)F)cs3)CC2)CC1` the value was 2.4; for `COc1cc(OC)c(S(=O)(=O)N2c3ccccc3CCC2C)cc1NC(=O)Cc1ccnc(F)c1` (stereo not drawn), 2.49; for `CC1(C)COCc2sc(N3CCN(C(=O)[C@@H]4CCCC[C@H]4C(=O)NC4(C#N)CC4)CC3)nc21`, 2.4.
Consider `C[C@@H]1CN(c2ccccc2)CCN1C(=O)[C@@H]1CCCC[C@H]1C(=O)NC1(C#N)CC1`, for which the logD came out at 2.35.
For `Cc1nc2nc[nH]n2c(=O)c1CCOC(=O)c1ccccc1F` the value was 0.99; for `Cc1noc2cc(N3CCN(C(=O)[C@@H]4CCCC[C@H]4C(=O)NC4(C#N)CC4)[C@H](C)C3)ccc12`, 2.67; for `COc1ccc(N2CCN(C(=O)[C@@H]3CCCC[C@H]3C(=O)NC3(C#N)CC3)[C@H](C)C2)cc1OC`, 1.85.
As for `N#CC1(NC(=O)[C@@H]2CCCC[C@H]2C(=O)N2CCc3[nH]c4ccc(C(F)(F)F)cc4c3C2)CC1`, the logD came out at 4.2.
For `CS(=O)(=O)Cc1cc(N2CCOCC2)nc(-c2ccc3[nH]ccc3c2)n1` the value was 2.06; for `C[C@H]1CN(C(=O)OC(C)(C)C)CCN1c1ncc(OCc2ccc(S(C)(=O)=O)cc2)cn1`, 3.5; for `CC(C)(C)c1cc2nc3c(c(=O)n2[nH]1)CN(Cc1ccccc1)C3=O`, 1.9.

In general, logD refers to lipophilicity at a set pH, counting ionised and neutral species. High values mean higher lipophilicity, low ones lower lipophilicity.
